Measured values from ChEMBL document CHEMBL1157397, “Cyclooxygenase (COX)-1 and -2 inhibitory labdane diterpenes from Crassocephalum mannii” (J Nat Prod, 2008).

Molecular target: T1, Prostaglandin G/H synthase 1 (Ovis aries) (UniProt P05979)
T1 sequence (whole entry): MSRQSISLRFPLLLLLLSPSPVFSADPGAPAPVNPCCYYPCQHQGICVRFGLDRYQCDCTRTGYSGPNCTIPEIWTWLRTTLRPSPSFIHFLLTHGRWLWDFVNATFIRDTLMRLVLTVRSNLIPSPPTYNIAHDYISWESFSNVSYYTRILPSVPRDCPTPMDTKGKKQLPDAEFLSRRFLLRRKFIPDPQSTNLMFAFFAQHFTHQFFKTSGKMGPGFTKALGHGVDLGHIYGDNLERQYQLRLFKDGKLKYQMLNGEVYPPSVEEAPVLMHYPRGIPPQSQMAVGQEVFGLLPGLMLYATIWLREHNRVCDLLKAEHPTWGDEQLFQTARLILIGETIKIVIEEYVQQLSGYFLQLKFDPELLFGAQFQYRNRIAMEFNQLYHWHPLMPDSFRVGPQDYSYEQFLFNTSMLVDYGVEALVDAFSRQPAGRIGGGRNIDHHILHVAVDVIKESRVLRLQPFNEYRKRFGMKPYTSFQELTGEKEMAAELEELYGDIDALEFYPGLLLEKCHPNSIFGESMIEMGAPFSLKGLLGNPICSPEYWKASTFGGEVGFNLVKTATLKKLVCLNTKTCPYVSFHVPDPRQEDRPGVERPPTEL
Assay: Inhibition of ovine COX1 at 100 uM

inhibition	SMILES
2%	CC(=O)OC[C@]1(C)CCC[C@]2(C)[C@@H](CC/C(C)=C/C(=O)O)[C@](C)(O)CC[C@@H]12
44%	C[C@@]1(CO)CCC[C@]2(C)[C@@H](CCO)[C@](C)(O)CC[C@@H]12
18%	CC(=O)OCC[C@@H]1[C@@]2(C)CCC[C@@](C)(COC(C)=O)[C@@H]2CC[C@@]1(C)O
29%	C/C(=C\C(=O)O)CC[C@@H]1[C@@]2(C)CCC[C@@](C)(CO)[C@@H]2CC[C@@]1(C)O
